Results on 14 compounds are retold here after patent US12509453B2, “BRM/BRG1 inhibitors and uses thereof” (Foghorn Therapeutics Inc., priority 2019, dated 2025).

One assay addresses T1, BRM (Homo sapiens, UniProt P51531).
T1 construct: made in house; host or cells: High Five insect cells
As to the kind of experiment: ATPase catalytic activity assay (ADP-Glo), BRM. The format is biochemical. The note with it: 30 nM BRM, 400 μM ATP; for IC50: 20 nM salmon sperm DNA, read-out: BRM IP50 (μM)*. As to the method:
(§1) The ATPase catalytic activity of BRM or BRG-1 was measured by the in vitro biochemical assay using ADP-Glo™ (Promega, V9102). The ADP-Glo™ kinase assay is performed in two steps once the reaction is complete. The first step is to deplete any unconsumed ATP in the reaction. The second step is to convert the reaction product ADP to ATP, which will be utilized by the luciferase to generate luminesce and be detected by a luminescence reader, such as Envision.
(§2) The assay reaction mixture (10 μL) contains 30 nM of BRM or BRG-1, 20 nM salmon sperm DNA (from Invitrogen, UltraPure™ Salmon Sperm DNA Solution, cat #15632011), and 400 μM of ATP in the ATPase assay buffer, which comprises of 20 mM Tris, pH 8, 20 mM MgCl2, 50 mM NaCl, 0.1% Tween-20, and 1 mM fresh DTT (Pierce™ DTT (Dithiothreitol), cat #20290). The reaction is initiated by the addition of the 2.5 μL ATPase solution to 2.5 μL ATP/DNA solution on low volume white Proxiplate-384 plus plate (PerkinElmer,cat #6008280) and incubates at room temperature for 1 hour. Then following addition of 5 μL of ADP-Glo™ Reagent provided in the kit, the reaction incubates at room temperature for 40 minutes. Then 10 μL of Kinase Detection Reagent provided in the kit is added to convert ADP to ATP, and the reaction incubates at room temperature for 60 minutes. Finally, luminescence measurement is collected with a plate-reading luminometer, such as Envision.
(§3) The ADP-Glo™ kinase assay is performed in two steps once the reaction is complete. The first step is to deplete any unconsumed ATP in the reaction. The second step is to convert the reaction product ADP to ATP, which will be utilized by the luciferase to generate luminesce and be detected by a luminescence reader, such as Envision.
as §2, with “BRG1,” for “BRG-1,”

In another assay the target is T2, BRG-1 (Homo sapiens, UniProt P51532).
T2 construct: made in house; host or cells: High Five insect cells
Nature of the assay: ATPase catalytic activity assay (ADP-Glo), BRG-1. In kind it is biochemical. The following applies: 30 nM BRG-1, 400 μM ATP; for IC50: 20 nM salmon sperm DNA, read-out: BRG1 IP50 (μM)*; for Emax: read-out: BRG1 Max % Inhibition. As for the experimental part:
as §1, §2, §3
as §2, with “BRG1,” for “BRG-1,”
Background: In ADP-Glo the light output rises with the ADP produced.

T2 sequence (P51532 whole entry): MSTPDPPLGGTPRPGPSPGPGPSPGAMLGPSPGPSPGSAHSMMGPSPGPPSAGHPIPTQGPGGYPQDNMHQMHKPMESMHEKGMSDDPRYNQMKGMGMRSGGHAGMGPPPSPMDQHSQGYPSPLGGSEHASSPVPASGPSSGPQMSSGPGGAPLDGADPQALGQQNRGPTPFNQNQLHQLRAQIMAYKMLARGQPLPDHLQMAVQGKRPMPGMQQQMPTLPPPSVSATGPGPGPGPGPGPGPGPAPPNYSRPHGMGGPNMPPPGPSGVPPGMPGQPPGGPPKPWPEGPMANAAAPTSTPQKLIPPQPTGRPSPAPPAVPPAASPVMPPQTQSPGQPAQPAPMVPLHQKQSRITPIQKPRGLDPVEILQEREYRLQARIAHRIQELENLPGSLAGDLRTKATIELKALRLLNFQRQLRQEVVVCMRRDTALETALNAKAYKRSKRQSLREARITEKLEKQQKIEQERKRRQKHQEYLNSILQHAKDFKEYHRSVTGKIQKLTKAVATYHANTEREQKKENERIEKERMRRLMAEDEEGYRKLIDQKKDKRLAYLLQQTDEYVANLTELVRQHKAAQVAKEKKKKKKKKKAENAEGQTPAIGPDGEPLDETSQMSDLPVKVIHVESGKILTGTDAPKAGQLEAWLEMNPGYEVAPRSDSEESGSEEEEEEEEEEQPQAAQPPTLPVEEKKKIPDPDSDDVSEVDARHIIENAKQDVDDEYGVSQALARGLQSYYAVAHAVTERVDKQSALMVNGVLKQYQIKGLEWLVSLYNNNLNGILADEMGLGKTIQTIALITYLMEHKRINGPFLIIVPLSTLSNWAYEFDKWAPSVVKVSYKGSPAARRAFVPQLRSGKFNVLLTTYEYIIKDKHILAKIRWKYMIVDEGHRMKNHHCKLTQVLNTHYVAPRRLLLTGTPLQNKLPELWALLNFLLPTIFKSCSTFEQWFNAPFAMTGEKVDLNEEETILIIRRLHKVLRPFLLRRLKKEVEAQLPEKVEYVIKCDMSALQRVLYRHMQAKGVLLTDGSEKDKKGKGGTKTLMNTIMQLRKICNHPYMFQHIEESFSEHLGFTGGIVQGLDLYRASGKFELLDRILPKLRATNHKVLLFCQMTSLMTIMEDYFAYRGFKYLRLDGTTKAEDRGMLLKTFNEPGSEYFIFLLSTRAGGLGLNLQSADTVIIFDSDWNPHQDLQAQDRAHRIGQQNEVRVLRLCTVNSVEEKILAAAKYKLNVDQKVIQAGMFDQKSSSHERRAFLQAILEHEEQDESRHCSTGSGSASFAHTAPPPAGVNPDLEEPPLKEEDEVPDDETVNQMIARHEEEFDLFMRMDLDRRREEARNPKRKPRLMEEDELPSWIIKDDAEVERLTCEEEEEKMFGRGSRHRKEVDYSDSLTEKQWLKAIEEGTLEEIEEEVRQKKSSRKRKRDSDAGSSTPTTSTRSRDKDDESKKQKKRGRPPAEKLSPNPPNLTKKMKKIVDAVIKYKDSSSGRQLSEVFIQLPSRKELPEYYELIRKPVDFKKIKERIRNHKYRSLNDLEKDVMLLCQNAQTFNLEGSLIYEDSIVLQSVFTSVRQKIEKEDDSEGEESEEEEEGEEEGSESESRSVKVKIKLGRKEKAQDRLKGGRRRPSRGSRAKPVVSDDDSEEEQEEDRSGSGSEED
T1 sequence (P51531 whole entry): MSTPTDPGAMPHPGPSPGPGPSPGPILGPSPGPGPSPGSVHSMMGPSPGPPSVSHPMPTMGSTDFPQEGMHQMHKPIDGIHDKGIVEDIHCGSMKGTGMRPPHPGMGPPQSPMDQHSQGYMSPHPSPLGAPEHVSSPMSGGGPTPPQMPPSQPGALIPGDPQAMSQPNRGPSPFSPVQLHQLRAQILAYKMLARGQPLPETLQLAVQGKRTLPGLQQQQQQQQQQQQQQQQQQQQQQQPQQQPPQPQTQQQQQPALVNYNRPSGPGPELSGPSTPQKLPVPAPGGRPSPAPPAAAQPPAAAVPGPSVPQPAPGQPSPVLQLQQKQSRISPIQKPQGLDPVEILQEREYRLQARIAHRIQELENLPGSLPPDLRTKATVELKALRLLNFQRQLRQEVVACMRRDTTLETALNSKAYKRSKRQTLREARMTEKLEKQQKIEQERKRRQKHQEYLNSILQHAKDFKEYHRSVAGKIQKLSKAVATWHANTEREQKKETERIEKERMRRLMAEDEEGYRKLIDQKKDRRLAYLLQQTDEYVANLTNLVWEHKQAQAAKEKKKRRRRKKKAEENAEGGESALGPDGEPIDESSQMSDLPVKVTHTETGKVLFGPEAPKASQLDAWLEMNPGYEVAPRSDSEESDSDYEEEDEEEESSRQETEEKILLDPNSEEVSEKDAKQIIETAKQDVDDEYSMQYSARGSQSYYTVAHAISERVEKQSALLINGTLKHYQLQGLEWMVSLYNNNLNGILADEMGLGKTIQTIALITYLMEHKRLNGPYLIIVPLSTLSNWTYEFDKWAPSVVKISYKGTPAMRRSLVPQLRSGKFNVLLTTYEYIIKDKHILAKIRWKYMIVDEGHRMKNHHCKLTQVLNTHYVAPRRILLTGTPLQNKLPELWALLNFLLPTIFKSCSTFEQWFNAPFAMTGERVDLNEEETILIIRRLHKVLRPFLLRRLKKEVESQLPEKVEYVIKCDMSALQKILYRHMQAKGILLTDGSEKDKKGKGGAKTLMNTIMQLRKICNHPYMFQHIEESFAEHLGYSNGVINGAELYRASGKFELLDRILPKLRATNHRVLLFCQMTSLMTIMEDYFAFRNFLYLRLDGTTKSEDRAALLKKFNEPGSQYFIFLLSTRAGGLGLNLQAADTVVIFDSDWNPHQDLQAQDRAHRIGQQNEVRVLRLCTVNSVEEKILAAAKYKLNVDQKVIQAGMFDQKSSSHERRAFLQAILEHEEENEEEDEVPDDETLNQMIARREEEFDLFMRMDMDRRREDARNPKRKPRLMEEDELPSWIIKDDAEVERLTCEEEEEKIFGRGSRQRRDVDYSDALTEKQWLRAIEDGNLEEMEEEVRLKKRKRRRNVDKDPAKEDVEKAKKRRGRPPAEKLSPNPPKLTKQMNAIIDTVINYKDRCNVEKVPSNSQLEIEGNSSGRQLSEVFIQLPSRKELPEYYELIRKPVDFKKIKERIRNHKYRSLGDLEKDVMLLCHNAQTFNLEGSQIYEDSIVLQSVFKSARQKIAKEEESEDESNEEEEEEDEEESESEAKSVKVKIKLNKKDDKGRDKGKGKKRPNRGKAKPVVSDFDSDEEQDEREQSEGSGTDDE

In the case of `C[C@@H]1CN(c2cccc(-c3csc(NC(=O)CNC(=O)c4cnn(C(C)(C)C)c4Cl)n3)c2)C[C@H](C)O1` [Compound 43, 1-(tert-butyl)-5-chloro-N-(2-((4-(3-((2R,6S)-2,6-dimethylmorpholino)phenyl)thiazol-2-yl)amino)-2-oxoethyl)-1H-pyrazole-4-carboxamide], the IC50 is below 0.1 µM at BRM and 0.1 to 1 µM on BRG-1.
For `Cc1nccc(-c2cccc(-c3csc(NC(=O)CNC(=O)c4cc(C)n(S(=O)(=O)C(C)C)c4)n3)c2)n1` [Compound 16], at BRM, the “BRM Max % Inhibition” value is above 95% and the IC50 was below 0.1 µM. Also, on BRG-1, the IC50 is below 0.1 µM and the Emax was above 95%.
Turning to `Cc1cc(C(=O)NCC(=O)Nc2nc(-c3cccc(-c4ccnc(N(C)CC(=O)O)c4)c3)cs2)cn1S(C)(=O)=O` [Compound 45, N-methyl-N-(4-(3-(2-(2-(5-methyl-1-(methylsulfonyl)-1H-pyrrole-3-carboxamido)acetamido)thiazol-4-yl)phenyl)pyridin-2-yl)glycine], the IC50 on BRM and on BRG-1 was below 0.1 µM each time.
In the case of `Cc1cc(-c2cccc(-c3csc(NC(=O)CNC(=O)c4cn(S(=O)(=O)C(C)C)c(C)c4C)n3)c2)ccn1` [Compound 13, 1-(isopropylsulfonyl)-4,5-dimethyl-N-(2-((4-(3-(2-methylpyridin-4-yl)phenyl)thiazol-2-yl)amino)-2-oxoethyl)-1H-pyrrole-3-carboxamide], on BRM, the “BRM Max % Inhibition” value was above 95% and the IC50 was in the range of 0.1 to 1 µM. On BRG-1, the IC50 lay within 1 to 5 µM and the Emax is above 80%.
Taken in the same sequence, the figures for `Cc1cc(C(=O)NCC(=O)Nc2nc(-c3cccc(N4C[C@@H](C)O[C@@H](C)C4)c3)cs2)cn1S(=O)(=O)C(C)C` [Compound 8, N-(2-((4-(3-((2S,6R)-2,6-dimethylmorpholino)phenyl)thiazol-2-yl)amino)-2-oxoethyl)-1-(isopropylsulfonyl)-5-methyl-1H-pyrrole-3-carboxamide] were above 95%, 0.1 to 1 µM, 0.1 to 1 µM and above 70%.
With `CC(C)S(=O)(=O)n1cc(C(=O)NCC(=O)Nc2nc(-c3cccc(N4C[C@@H](C)O[C@@H](C)C4)n3)cs2)cc1Cl` [Compound 37, 5-chloro-N-(2-((4-(6-((cis)-2,6-dimethylmorpholino)pyridin-2-yl)thiazol-2-yl)amino)-2-oxoethyl)-1-(isopropylsulfonyl)-1H-pyrrole-3-carboxamide], at BRM, the “BRM Max % Inhibition” value is above 80% and the IC50 is 0.1 to 1 µM. Besides, at BRG-1, the IC50 fell in the range of 1 to 5 µM and the Emax is above 40%.
Taken in the same sequence, the figures for `Cc1cn(S(C)(=O)=O)cc1C(=O)NCC(=O)Nc1nc(-c2cccc(-c3ccncc3)c2)cs1` [Compound 9, 4-methyl-1-(methylsulfonyl)-N-(2-oxo-2-((4-(3-(pyridin-4-yl)phenyl)thiazol-2-yl)amino)ethyl)-1H-pyrrole-3-carboxamide] were above 80%, below 0.1 µM, below 0.1 µM and above 60%.
For `Cc1cc(-c2cccc(-c3csc(NC(=O)CNC(=O)c4cc(C5CC5)n(S(C)(=O)=O)c4)n3)c2)cc(C)n1` [Compound 19, 5-cyclopropyl-N-(2-((4-(3-(2,6-dimethylpyridin-4-yl)phenyl)thiazol-2-yl)amino)-2-oxoethyl)-1-(methylsulfonyl)-1H-pyrrole-3-carboxamide], in that order: above 95%, 0.1 to 1 µM, 0.1 to 1 µM and above 80%.
For `Cc1cc(-c2cccc(-c3csc(NC(=O)CNC(=O)c4cc(C)n(S(=O)(=O)C(C)C)c4)n3)c2)cc(C)n1` [Compound 7, N-(2-((4-(3-(2,6-dimethylpyridin-4-yl)phenyl)thiazol-2-yl)amino)-2-oxoethyl)-1-(isopropylsulfonyl)-5-methyl-1H-pyrrole-3-carboxamide], in that order: above 95%, below 0.1 µM, 0.1 to 1 µM and above 95%.
Turning to `Cc1c(C(=O)NCC(=O)Nc2nc(-c3cccc(N4C[C@@H](C)O[C@@H](C)C4)c3)cs2)cnn1C(C)(C)C` [Compound 42, 1-(tert-butyl)-N-(2-((4-(3-((2R,6S)-2,6-dimethylmorpholino)phenyl)thiazol-2-yl)amino)-2-oxoethyl)-5-methyl-1H-pyrazole-4-carboxamide], the IC50 at BRM and at BRG-1 was 0.1 to 1 µM throughout.
With `CC(C)S(=O)(=O)n1cc(C(=O)NCC(=O)Nc2nc(-c3cccc(N4C[C@@H](C)O[C@@H](C)C4)c3)cs2)cc1Cl` [Compound 36], at BRM, the “BRM Max % Inhibition” value is on record as above 90% and the IC50 lay in the range of 0.1 to 1 µM. In addition, on BRG-1, the IC50 lay in the range of 1 to 5 µM and the Emax is above 60%.
Taken in the same sequence, the figures for `Cc1cc(C(=O)NCC(=O)Nc2nc(-c3cccc(N4C[C@@H](C)O[C@@H](C)C4)n3)cs2)cn1S(=O)(=O)C(C)C` [Compound 38, N-(2-((4-(6-((cis)-2,6-dimethylmorpholino)pyridin-2-yl)thiazol-2-yl)amino)-2-oxoethyl)-1-(isopropylsulfonyl)-5-methyl-1H-pyrrole-3-carboxamide] were above 95%, 0.1 to 1 µM, 1 to 5 µM and above 70%.
For `CS(=O)(=O)n1cc(C(=O)NCC(=O)Nc2nc(-c3cccc(N4CCC(O)CC4)c3)cs2)c2ccccc21` [Compound 39, N-(2-((4-(3-(4-hydroxypiperidin-1-yl)phenyl)thiazol-2-yl)amino)-2-oxoethyl)-1-(methylsulfonyl)-1H-indole-3-carboxamide], in that order: above 80%, 0.1 to 1 µM, 1 to 5 µM and below 30%.
In the case of `Cc1nccc(-c2cccc(-c3csc(NC(=O)CNC(=O)c4cn(S(=O)(=O)C(C)C)c(C)c4C)n3)c2)n1` [Compound 17], at BRM, the “BRM Max % Inhibition” value is above 95% and the IC50 was below 0.1 µM. Moreover, on BRG-1, the IC50 lay within 0.1 to 1 µM and the Emax was above 80%.
